Laboratory results reported in patent US20240417410A1, “TRICYCLIC COMPOUNDS FOR THE TREATMENT OF CANCER” (Hoffmann-La Roche Inc., priority 2023, published 2024).

Experiments:
AGS cells (KRAS G12D) = experiment: Cell viability assay (Cell Counting Kit-8, 3-day); type: cell-based, human; details: Homo sapiens, 72 h, 72 hrs incubation
How it was run: (§1)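 Seed NCI-H358 5,000/well, AGS and SW620 2,000/well; overnight. Compound, 0.5% DMSO final, 72 hrs. CCK-8 2 hrs, OD450–OD650. IC50: 4-parameter fit.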

[1] = system: NCI-H358 cells (KRAS G12C); experiment: Cell viability assay (Cell Counting Kit-8, 3-day); type: cell-based, human; details: Homo sapiens, NCI-H358, 72 h, NCI-H358, 72 hrs incubation
How it was run: as §1

SW620 cells (KRAS G12V) = experiment: Cell viability assay (Cell Counting Kit-8, 3-day); type: cell-based, human; details: Homo sapiens, SW-620; SW620, 72 hrs incubation
How it was run: as §1

KRAS G12C-BRAF complex = KRAS G12C-BRAF complex (Homo sapiens (Human), UniProt P01116+P62937, G12C); experiment: KRAS-BRAF with CYPA (500 nM) interaction assay (TR-FRET, Example 136); type: biochemical; details: KRAS G12C-BRAF disruption
Chain of KRAS G12C-BRAF complex (P01116-2 other isoform, or with tags, fused parts or gaps G12C): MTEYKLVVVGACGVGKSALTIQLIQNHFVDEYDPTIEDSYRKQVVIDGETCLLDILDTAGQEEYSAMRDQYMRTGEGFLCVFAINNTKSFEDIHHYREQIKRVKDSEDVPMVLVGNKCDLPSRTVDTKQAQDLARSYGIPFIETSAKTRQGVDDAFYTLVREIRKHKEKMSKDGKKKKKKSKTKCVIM
Chain of KRAS G12C-BRAF complex (P62937 whole entry): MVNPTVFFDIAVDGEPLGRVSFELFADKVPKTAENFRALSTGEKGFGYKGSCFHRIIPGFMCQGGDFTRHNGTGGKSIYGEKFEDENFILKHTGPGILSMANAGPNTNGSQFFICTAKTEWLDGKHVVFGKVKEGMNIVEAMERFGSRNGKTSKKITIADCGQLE

[2] = system: phosphorylation of ERK, KRAS G12C in NCI-H358 cells; experiment: pERK inhibition assay; type: cell-based; details: Homo sapiens, NCI-H358, 4 h
How it was run: (§2)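 Phospho-ERK quantified by in-cell ELISA with TMB read-out at OD450 following 4 h compound exposure (final 0.5% DMSO). Cell lines were SW620 (KRAS G12V), AGS (G12D) and NCI-H358 (G12C), grown in RPMI-1640 with 10% FBS. A 4-parameter sigmoidal model gave the IC50.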

[3] = system: phosphorylation of ERK, KRAS G12D in AGS cells; experiment: pERK inhibition assay; type: cell-based; details: Homo sapiens, AGS, 4 h
How it was run: as §2

[4] = system: phosphorylation of ERK, KRAS G12V in SW620; experiment: pERK inhibition assay; type: cell-based; details: Homo sapiens, SW-620, 4 h, SW620 cells
How it was run: as §2

Row | Structure (SMILES) | IC50 (AGS cells (KRAS G12D)) [nM] | IC50 [1] [nM] | IC50 (SW620 cells (KRAS G12V)) [nM] | IC50 (KRAS G12C-BRAF complex) [nM] | IC50 [2] [nM] | IC50 [3] [nM] | IC50 [4] [nM]
1 | CO[C@@H](C)c1ncc(N2CCN(CC(F)(F)F)CC2)cc1-c1c2c3cc(cc4c3n1CCO4)-c1csc(n1)C[C@H](NC(=O)[C@H]1[C@@H]3COC[C@@H]31)C(=O)N1CCC[C@H](N1)C(=O)OCC(C)(C)C2 (atropisomer, axis not shown; (M)) [Example 12, (1S,5R,6r)-N-[(7S,13S)-(20M)-20-[2-[(1S)-1-methoxyethyl]-5-[4-(2,2,2-trifluoroethyl)piperazin-1-yl]-3-pyridyl]-17,17-dimethyl-8,14-dioxo-15,24-dioxa-4-thia-9,21,30,31-tetrazahexacyclo[23.3.1.1^2,5.1^9,13.0^19,27.0^21,26]hentriaconta-1 (28),2,5 (31),19,25 (29),26-hexaen-7-yl]-3-oxabicyclo[3.1.0]hexane-6-carboxamide] | 25 | 12.5 | 2 | 12 | 3.8 | 2.2 | 1.2
2 | COCCN1CCN(c2cnc([C@H](C)OC)c(-c3c4c5cc(cc6c5n3CCC6)-c3csc(n3)C[C@H](NC(=O)[C@H]3[C@H](C)[C@@H]3C)C(=O)N3CCC[C@H](N3)C(=O)OCC(C)(C)C4)c2)CC1 (atropisomer, axis not shown; (M)) [Example 115, (1r,2S,3R)-N-[(7S,13S)-(20M)-20-[2-[(1S)-1-methoxyethyl]-5-[4-(2-methoxyethyl)piperazin-1-yl]-3-pyridyl]-17,17-dimethyl-8,14-dioxo-15-oxa-4-thia-9,21,30,31-tetrazahexacyclo[23.3.1.1^2,5.1^9,13.0^19,27.0^21,26]hentriaconta-1 (28),2,5 (31), 19,25 (29),26-hexaen-7-yl]-2,3-dimethyl-cyclopropanecarboxamide] | 3.4 | 1.7 | 0.4 | 18.5 | 0.8 | 2.6 | 0.2
3 | CO[C@@H](C)c1ncc(N2CCN(C)CC2)cc1-c1c2c3cc(cc4c3n1CCO4)-c1csc(n1)C[C@H](NC(=O)[C@H]1C[C@@H]1c1cccnc1)C(=O)N1CCC[C@H](N1)C(=O)OCC(C)(C)C2 (atropisomer, axis not shown; (M)) [Example 96, (1S,2S)-N-[(7S,13S)-(20M)-20-[2-[(1S)-1-methoxyethyl]-5-(4-methylpiperazin-1-yl)-3-pyridyl]-17,17-dimethyl-8,14-dioxo-15,24-dioxa-4-thia-9,21,30,31-tetrazahexacyclo[23.3.1.1^2,5.1^9,13.0^19,27.0^21,26]hentriaconta-1 (28),2,5 (31),19,25 (29),26-hexaen-7-yl]-2-(3-pyridyl)cyclopropanecarboxamide] | 1.7 | 1 | 0.2 | 9.4 | 0.4 | 1.2 | 0.4
4 | CO[C@@H](C)c1ncc(N2CCN(C)CC2)cc1-c1c2c3cc(cc4c3n1CCC4)-c1csc(n1)C[C@H](NC(=O)[C@H]1[C@@H]3COC[C@@H]31)C(=O)N1CCC[C@H](N1)C(=O)OCC(C)(C)C2 (atropisomer, axis not shown; (M)) [Example 15, (1S,5R,6r)-N-[(7S,13S)-(20M)-20-[2-[(1S)-1-methoxyethyl]-5-(4-methylpiperazin-1-yl)-3-pyridyl]-17,17-dimethyl-8,14-dioxo-15-oxa-4-thia-9,21,30,31-tetrazahexacyclo[23.3.1.1^2,5.1^9,13.0^19,27.0^21,26]hentriaconta-1 (28),2,5 (31), 19,25 (29),26-hexaen-7-yl]-3-oxabicyclo[3.1.0]hexane-6-carboxamide] | 15.9 | 6.6 | 1.2 | 11.9 | 0.7 | 5.2 | 0.8
5 | CO[C@@H](C)c1ncc(N2CCN(CC(F)(F)F)CC2)cc1-c1c2c3cc(cc4c3n1CCO4)-c1csc(n1)C[C@H](NC(=O)[C@H]1C[C@@H]1C)C(=O)N1CCC[C@H](N1)C(=O)OCC(C)(C)C2 (atropisomer, axis not shown; (M)) [Example 5, (1S,2S)-N-[(7S,13S)-(20M)-20-[2-[(1S)-1-methoxyethyl]-5-[4-(2,2,2-trifluoroethyl)piperazin-1-yl]-3-pyridyl]-17,17-dimethyl-8,14-dioxo-15,24-dioxa-4-thia-9,21,30,31-tetrazahexacyclo[23.3.1.1^2,5.1^9,13.0^19,27.0^21,26]hentriaconta-1 (28),2,5 (31), 19,25 (29),26-hexaen-7-yl]-2-methyl-cyclopropanecarboxamide] | 70 | 17.3 | 4.6 | 34.8 | 6.2 | 21.2 | 2.8
6 | CO[C@@H](C)c1ncc(N2CCN(C)CC2)cc1-c1c2c3cc(c(F)c4c3n1CCC4)-c1csc(n1)C[C@H](NC(=O)[C@H]1[C@H](C)[C@@H]1C)C(=O)N1CCC[C@H](N1)C(=O)OCC(C)(C)C2 (atropisomer, axis not shown; (M)) [Example 124, (1r,2S,3R)-N-[(7S,13S)-29-fluoro-(20M)-20-[2-[(1S)-1-methoxyethyl]-5-(4-methylpiperazin-1-yl)-3-pyridyl]-17,17-dimethyl-8,14-dioxo-15-oxa-4-thia-9,21,30,31-tetrazahexacyclo[23.3.1.1^2,5.1^9,13.0^19,27.0^21,26]hentriaconta-1 (28),2,5 (31), 19,25 (29),26-hexaen-7-yl]-2,3-dimethyl-cyclopropanecarboxamide] | 13.8 | 8.9 | 1.6 | 16.2 | 1.4 | 15.7 | 0.7
7 | CO[C@@H](C)c1ncc(N2CCOCC2)cc1-c1c2c3cc(cc4c3n1CCO4)-c1csc(n1)C[C@H](NC(=O)[C@H]1C[C@@H]1C(F)F)C(=O)N1CCC[C@H](N1)C(=O)OCC(C)(C)C2 (atropisomer, axis not shown; (M)) [Example 9, (1S,2S)-2-(difluoromethyl)-N-[(7S,13S)-(20M)-20-[2-[(1S)-1-methoxyethyl]-5-morpholino-3-pyridyl]-17,17-dimethyl-8,14-dioxo-15,24-dioxa-4-thia-9,21,30,31-tetrazahexacyclo[23.3.1.1^2,5.1^9,13.0^19,27.0^21,26]hentriaconta-1 (28),2,5 (31), 19,25 (29),26-hexaen-7-yl]cyclopropanecarboxamide] | 7.6 | 2.8 | < 0.6 | 21.1 | 2.3 | 1.8 | 0.8
8 | CO[C@@H](C)c1ncc(N2CCOCC2)cc1-c1c2c3cc(cc4c3n1CCC4)-c1csc(n1)C[C@H](NC(=O)[C@H]1[C@@H]3COC[C@@H]31)C(=O)N1CCC[C@H](N1)C(=O)OCC(C)(C)C2 (atropisomer, axis not shown; (M)) [Example 7, (1S,5R,6r)-N-[(7S,13S)-(20M)-20-[2-[(1S)-1-methoxyethyl]-5-morpholino-3-pyridyl]-17,17-dimethyl-8,14-dioxo-15-oxa-4-thia-9,21,30,31-tetrazahexacyclo[23.3.1.1^2,5.1^9,13.0^19,27.0^21,26]hentriaconta-1 (28),2,5 (31), 19,25 (29),26-hexaen-7-yl]-3-oxabicyclo[3.1.0]hexane-6-carboxamide] | 13.1 | 2.4 | 0.8 | 9.4 | 1.6 | 7.9 | 1.2
9 | CO[C@@H](C)c1ncc(N2CCN(CC(F)(F)F)CC2)cc1-c1c2c3cc(cc4c3n1CCO4)-c1csc(n1)C[C@H](NC(=O)[C@H]1[C@H](C)[C@@H]1C)C(=O)N1CCC[C@H](N1)C(=O)OCC(C)(C)C2 (atropisomer, axis not shown; (M)) [Example 85, (1r,2S,3R)-N-[(7S,13S)-(20M)-20-[2-[(1S)-1-methoxyethyl]-5-[4-(2,2,2-trifluoroethyl)piperazin-1-yl]-3-pyridyl]-17,17-dimethyl-8,14-dioxo-15,24-dioxa-4-thia-9,21,30,31-tetrazahexacyclo[23.3.1.1^2,5.1^9,13.0^19,27.0^21,26]hentriaconta-1 (28),2,5 (31),19,25 (29),26-hexaen-7-yl]-2,3-dimethyl-cyclopropanecarboxamide] | 13 | 9 | 1 | 18.8 | 1.7 | 5.6 | 0.6
